Test results published in the OligoGym collection.
HELM strings list units from the 5' end as sugar, base in round brackets, then linkage (d deoxyribose, r ribose, m 2'-O-methyl, p phosphodiester). Strings are as the collection lists them; they lack the last nucleoside at the 3' end of the tested compound. [moe] = 2'-O-(2-methoxyethyl) (MOE); [sp] = phosphorothioate linkage; [m5C] = 5-methylcytosine

Target: GFAP
Test: mouse, dose not given
Conditions: ASO

Substance | 3 h FOB score [score 0-7]
RNA1{[moe]([m5C])[sp].[moe]([m5C])p.[moe]([m5C])p.[moe]([m5C])p.[moe]([m5C])[sp].d(T)[sp].d([m5C])[sp].d(T)[sp].d(A)[sp].d(T)[sp].d([m5C])[sp].d([m5C])[sp].d([m5C])[sp].d(T)[sp].d([m5C])[sp].[moe]([m5C])p.[moe]([m5C])p.[moe](A)[sp].[moe](G)}$$$$ (last 3' nucleoside missing) | 0
RNA1{[moe](A)[sp].[moe](G)p.[moe](T)p.[moe]([m5C])p.[moe](A)[sp].d(G)[sp].d([m5C])[sp].d([m5C])[sp].d(T)[sp].d(G)[sp].d(G)[sp].d(T)[sp].d(T)[sp].[moe](A)p.[moe](G)p.[moe]([m5C])[sp].[moe]([m5C])}$$$$ (last 3' nucleoside missing) | 2
RNA1{[moe](T)[sp].[moe]([m5C])p.[moe](T)p.[moe](T)p.[moe](T)p.[moe](A)p.d(T)[sp].d(T)[sp].d(T)[sp].d(T)[sp].d(T)[sp].d([m5C])[sp].d([m5C])[sp].d(T)[sp].d([m5C])[sp].d(A)[sp].[moe](G)p.[moe]([m5C])[sp].[moe](G)}$$$$ (last 3' nucleoside missing) | 0
RNA1{[moe](A)[sp].[moe](G)p.[moe](T)p.[moe](A)p.[moe](T)[sp].d(T)[sp].d(A)[sp].d([m5C])[sp].d([m5C])[sp].d(T)[sp].d([m5C])[sp].d(T)[sp].d(A)[sp].[moe]([m5C])p.[moe](T)p.[moe](A)[sp].[moe](G)}$$$$ (last 3' nucleoside missing) | 3
RNA1{[moe](T)[sp].[moe](G)p.[moe](T)p.[moe]([m5C])p.[moe](T)[sp].d(T)[sp].d(T)[sp].d(A)[sp].d(T)[sp].d(T)[sp].d(T)[sp].d(T)[sp].d(T)[sp].[moe]([m5C])p.[moe]([m5C])p.[moe](T)[sp].[moe]([m5C])}$$$$ (last 3' nucleoside missing) | 1
RNA1{[moe](G)[sp].[moe](T)p.[moe](G)p.[moe](T)p.[moe](G)[sp].d(T)[sp].d(A)[sp].d(T)[sp].d(T)[sp].d(A)[sp].d(G)[sp].d(G)[sp].d(A)[sp].[moe](T)p.[moe]([m5C])p.[moe]([m5C])[sp].[moe]([m5C])}$$$$ (last 3' nucleoside missing) | 3
RNA1{[moe]([m5C])[sp].[moe](T)p.[moe]([m5C])p.[moe](T)p.[moe](G)p.d([m5C])[sp].d([m5C])[sp].d(A)[sp].d(T)[sp].d(T)[sp].d(T)[sp].d(A)[sp].d(T)[sp].d([m5C])[sp].d(T)[sp].[moe](G)p.[moe](T)p.[moe](G)[sp].[moe]([m5C])}$$$$ (last 3' nucleoside missing) | 0
RNA1{[moe](A)[sp].[moe]([m5C])p.[moe]([m5C])p.[moe](T)p.[moe]([m5C])[sp].d([m5C])[sp].d(A)[sp].d(T)[sp].d([m5C])[sp].d(T)[sp].d([m5C])[sp].d(T)[sp].d(G)[sp].d(G)[sp].d([m5C])[sp].[moe](A)p.[moe](A)p.[moe]([m5C])[sp].[moe](A)}$$$$ (last 3' nucleoside missing) | 6
RNA1{[moe]([m5C])[sp].[moe](T)p.[moe]([m5C])p.[moe](T)p.[moe](A)[sp].d(T)[sp].d([m5C])[sp].d([m5C])[sp].d([m5C])[sp].d(T)[sp].d([m5C])[sp].d([m5C])[sp].d([m5C])[sp].d(A)[sp].d(G)[sp].[moe]([m5C])p.[moe](A)p.[moe]([m5C])[sp].[moe]([m5C])}$$$$ (last 3' nucleoside missing) | 2
RNA1{[moe](A)[sp].[moe](G)p.[moe]([m5C])p.[moe](A)p.[moe](T)[sp].d(A)[sp].d(G)[sp].d(G)[sp].d(G)[sp].d(A)[sp].d(T)[sp].d(A)[sp].d(T)[sp].d([m5C])[sp].d([m5C])[sp].[moe]([m5C])p.[moe](A)p.[moe]([m5C])[sp].[moe]([m5C])}$$$$ (last 3' nucleoside missing) | 2
RNA1{[moe](T)[sp].[moe](T)p.[moe](T)p.[moe](T)p.[moe](G)[sp].d(T)[sp].d(G)[sp].d(T)[sp].d(G)[sp].d(T)[sp].d(G)[sp].d(A)[sp].d(G)[sp].d(T)[sp].d(A)[sp].[moe](A)p.[moe](G)p.[moe](A)[sp].[moe](A)}$$$$ (last 3' nucleoside missing) | 7
RNA1{[moe](T)[sp].[moe](T)p.[moe](T)p.[moe](G)p.[moe](G)p.d([m5C])[sp].d(A)[sp].d(G)[sp].d(T)[sp].d(A)[sp].d(T)[sp].d(T)[sp].d(A)[sp].d([m5C])[sp].d([m5C])[sp].[moe](T)p.[moe]([m5C])p.[moe](T)[sp].[moe](A)}$$$$ (last 3' nucleoside missing) | 1
RNA1{[moe]([m5C])[sp].[moe](G)p.[moe](T)p.[moe](G)p.[moe](T)[sp].d([m5C])[sp].d(A)[sp].d(G)[sp].d([m5C])[sp].d([m5C])[sp].d([m5C])[sp].d(T)[sp].d(G)[sp].d(A)[sp].d(G)[sp].[moe]([m5C])p.[moe](A)p.[moe]([m5C])[sp].[moe]([m5C])}$$$$ (last 3' nucleoside missing) | 2
RNA1{[moe](G)[sp].[moe]([m5C])p.[moe](A)p.[moe](G)p.[moe](T)p.[moe](A)p.d(T)[sp].d(T)[sp].d(A)[sp].d([m5C])[sp].d([m5C])[sp].d(T)[sp].d([m5C])[sp].d(T)[sp].d(A)[sp].d([m5C])[sp].[moe](T)p.[moe](A)[sp].[moe](G)}$$$$ (last 3' nucleoside missing) | 0
RNA1{[moe]([m5C])[sp].[moe](T)p.[moe](A)p.[moe](G)p.[moe](T)p.d([m5C])[sp].d(A)[sp].d(G)[sp].d([m5C])[sp].d([m5C])[sp].d(T)[sp].d(G)[sp].d(G)[sp].d(T)[sp].d(T)[sp].[moe](A)p.[moe](G)p.[moe]([m5C])[sp].[moe]([m5C])}$$$$ (last 3' nucleoside missing) | 2
RNA1{[moe](G)[sp].[moe](T)p.[moe]([m5C])p.[moe](A)p.[moe](G)p.[moe]([m5C])p.d([m5C])[sp].d(T)[sp].d(G)[sp].d(G)[sp].d(T)[sp].d(T)[sp].d(A)[sp].d(G)[sp].d([m5C])[sp].d([m5C])[sp].[moe](T)p.[moe](T)[sp].[moe](T)}$$$$ (last 3' nucleoside missing) | 4
RNA1{[moe](T)[sp].[moe](T)p.[moe](G)p.[moe](T)p.d([m5C])[sp].d(T)[sp].d(T)[sp].d(T)[sp].d(A)[sp].d(T)[sp].d(T)[sp].d(T)[sp].d(T)[sp].d(T)[sp].[moe]([m5C])p.[moe]([m5C])p.[moe](T)p.[moe]([m5C])[sp].[moe](A)}$$$$ (last 3' nucleoside missing) | 2
RNA1{[moe](G)[sp].[moe](A)p.[moe](G)p.[moe](G)p.[moe]([m5C])[sp].d(T)[sp].d(T)[sp].d(T)[sp].d(T)[sp].d(G)[sp].d(A)[sp].d(G)[sp].d(A)[sp].d(T)[sp].d(A)[sp].[moe](T)p.[moe]([m5C])p.[moe](T)[sp].[moe](T)}$$$$ (last 3' nucleoside missing) | 4
RNA1{[moe](G)[sp].[moe]([m5C])p.[moe](G)p.[moe](A)p.[moe](T)[sp].d(G)[sp].d(G)[sp].d(A)[sp].d(G)[sp].d([m5C])[sp].d([m5C])[sp].d(T)[sp].d([m5C])[sp].d(A)[sp].d(G)[sp].[moe](G)p.[moe](G)p.[moe](A)[sp].[moe](T)}$$$$ (last 3' nucleoside missing) | 7
RNA1{[moe](T)[sp].[moe](G)p.[moe]([m5C])p.[moe]([m5C])p.[moe](A)p.[moe](T)p.d(T)[sp].d(T)[sp].d(A)[sp].d(T)[sp].d([m5C])[sp].d(T)[sp].d(G)[sp].d(T)[sp].d(G)[sp].d([m5C])[sp].[moe](T)p.[moe](T)[sp].[moe](T)}$$$$ (last 3' nucleoside missing) | 2
RNA1{[moe](G)[sp].[moe](A)p.[moe]([m5C])p.[moe]([m5C])p.[moe](T)[sp].d(G)[sp].d(T)[sp].d(G)[sp].d(A)[sp].d([m5C])[sp].d(T)[sp].d(A)[sp].d(T)[sp].d([m5C])[sp].d(T)[sp].[moe](A)p.[moe](G)p.[moe](G)[sp].[moe](A)}$$$$ (last 3' nucleoside missing) | 3
RNA1{[moe](T)[sp].[moe](G)p.[moe](A)p.[moe]([m5C])p.[moe](T)p.d(A)[sp].d(T)[sp].d([m5C])[sp].d(T)[sp].d(A)[sp].d(G)[sp].d(G)[sp].d(A)[sp].d(T)[sp].d(T)[sp].[moe](T)p.[moe](G)p.[moe](G)[sp].[moe]([m5C])}$$$$ (last 3' nucleoside missing) | 3
RNA1{[moe](G)[sp].[moe]([m5C])p.[moe](A)p.[moe](T)p.[moe](T)[sp].d(T)[sp].d(G)[sp].d(T)[sp].d([m5C])[sp].d(T)[sp].d(T)[sp].d(T)[sp].d(A)[sp].d(T)[sp].d(T)[sp].[moe](T)p.[moe](T)p.[moe](T)[sp].[moe]([m5C])}$$$$ (last 3' nucleoside missing) | 0
RNA1{[moe](T)[sp].[moe](G)p.[moe](T)p.[moe](G)p.[moe](A)[sp].d(T)[sp].d(T)[sp].d(T)[sp].d(T)[sp].d([m5C])[sp].d([m5C])[sp].d([m5C])[sp].d([m5C])[sp].[moe](G)p.[moe](T)p.[moe]([m5C])[sp].[moe](T)}$$$$ (last 3' nucleoside missing) | 0
RNA1{[moe](G)[sp].[moe](T)p.[moe](G)p.[moe](A)p.[moe](G)[sp].d(T)[sp].d(T)[sp].d(T)[sp].d([m5C])[sp].d(T)[sp].d(T)[sp].d(G)[sp].d(T)[sp].d(T)[sp].d(A)[sp].[moe](G)p.[moe](T)p.[moe](T)[sp].[moe](G)}$$$$ (last 3' nucleoside missing) | 7
RNA1{[moe](A)[sp].[moe](G)p.[moe](A)p.[moe](T)p.[moe](A)[sp].d(T)[sp].d([m5C])[sp].d(T)[sp].d(T)[sp].d(G)[sp].d(T)[sp].d(G)[sp].d(A)[sp].d([m5C])[sp].d([m5C])[sp].[moe](T)p.[moe](T)p.[moe](G)[sp].[moe](T)}$$$$ (last 3' nucleoside missing) | 6
